Source: patent publication US7264832B2, “Cyclooxygenase-2 inhibitory withanolide compositions and method” (Board of Trustees of Michigan State University, priority 2002, dated 2007)

Columns and labels:
[1] = target: T1, COX-2 enzyme (human PGHS-2) isolated from insect cells (Homo sapiens, UniProt P35354); assay: Cyclooxygenase enzyme inhibitory assay, COX-2 (initial rate of O2 uptake)
T1 sequence (P35354 18-604): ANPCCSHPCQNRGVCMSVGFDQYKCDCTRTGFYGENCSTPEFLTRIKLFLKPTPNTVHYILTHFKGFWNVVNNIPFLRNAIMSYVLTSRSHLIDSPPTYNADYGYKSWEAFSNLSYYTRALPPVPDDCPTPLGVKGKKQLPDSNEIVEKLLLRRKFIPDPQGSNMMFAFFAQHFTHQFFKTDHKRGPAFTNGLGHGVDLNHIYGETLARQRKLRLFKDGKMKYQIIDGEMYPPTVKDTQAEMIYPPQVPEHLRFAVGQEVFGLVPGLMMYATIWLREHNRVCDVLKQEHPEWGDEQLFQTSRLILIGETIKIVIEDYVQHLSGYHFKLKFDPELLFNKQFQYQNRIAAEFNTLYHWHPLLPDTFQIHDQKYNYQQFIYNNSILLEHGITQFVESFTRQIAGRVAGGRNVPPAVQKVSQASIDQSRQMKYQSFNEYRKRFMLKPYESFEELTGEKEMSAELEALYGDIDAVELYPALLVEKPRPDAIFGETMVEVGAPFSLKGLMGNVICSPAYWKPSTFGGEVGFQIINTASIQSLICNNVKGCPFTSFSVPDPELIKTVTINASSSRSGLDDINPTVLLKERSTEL
Experimental: (§1) The withanolides isolated from the leaves were evaluated for their cyclooxygenase (COX) enzyme inhibitory activity using prostaglandin endoperoxide synthase isozymes-1 (COX-1) and PGHS-2 (COX-2).
(§2) Cyclooxygenase enzyme inhibitory assay. COX-1 enzyme was prepared from ram seminal vesicles and COX-2 enzyme was isolated from insect cells cloned with human PGHS-2 enzyme. The inhibitory effects of test compounds on COX-1 and -2 were measured by monitoring the initial rate of 02 uptake using an oxygen electrode (Instech Laboratories, Plymouth Meeting, Pa.) attached to a biological oxygen monitor (Yellow Spring Instrument, Inc., Yellow Spring, Ohio) at 37° C. The enzymes were diluted (1:1) with Tris buffer (pH 7, 10-15 μl) and the test compounds (100 μg/ml, 10 μl) dissolved in DMSO were added to the assay mixture composed of 3 ml of 0.1 M Tris HCl, pH 7, 1 mmol phenol and 85 μg of hemoglobin. […] The instantaneous inhibition was measured by using Quick Log Data acquisition and control computer software (Strawberry Tree Inc., Sunnyvale, Calif., USA).

[2] = Antioxidant activity: inhibition of Fe2+-initiated lipid peroxidation in large unilamellar vesicles; conditions: 100 ppm (100 μg/ml), at 20 min, relative to DMSO control
Experimental: The ability of withanolides to inhibit lipid peroxidation in a model system was used to determine whether they could act as antioxidants. The assay was conducted by using large unilamellar vesicles and peroxidation was initiated by adding Fe^2+.
Antioxidant activity. […] The percentage of inhibition was calculated with respect to DMSO control. All compounds were tested at 100 μg/ml and the positive controls BHA, BHT and TBHQ were tested at 10 μM.

[3] = target: T2, COX-1 enzyme (prostaglandin endoperoxide synthase isozyme-1) prepared from ram seminal vesicles (Ovis aries, UniProt P05979); assay: Cyclooxygenase enzyme inhibitory assay, COX-1 (initial rate of O2 uptake)
T2 sequence (P05979 25-600): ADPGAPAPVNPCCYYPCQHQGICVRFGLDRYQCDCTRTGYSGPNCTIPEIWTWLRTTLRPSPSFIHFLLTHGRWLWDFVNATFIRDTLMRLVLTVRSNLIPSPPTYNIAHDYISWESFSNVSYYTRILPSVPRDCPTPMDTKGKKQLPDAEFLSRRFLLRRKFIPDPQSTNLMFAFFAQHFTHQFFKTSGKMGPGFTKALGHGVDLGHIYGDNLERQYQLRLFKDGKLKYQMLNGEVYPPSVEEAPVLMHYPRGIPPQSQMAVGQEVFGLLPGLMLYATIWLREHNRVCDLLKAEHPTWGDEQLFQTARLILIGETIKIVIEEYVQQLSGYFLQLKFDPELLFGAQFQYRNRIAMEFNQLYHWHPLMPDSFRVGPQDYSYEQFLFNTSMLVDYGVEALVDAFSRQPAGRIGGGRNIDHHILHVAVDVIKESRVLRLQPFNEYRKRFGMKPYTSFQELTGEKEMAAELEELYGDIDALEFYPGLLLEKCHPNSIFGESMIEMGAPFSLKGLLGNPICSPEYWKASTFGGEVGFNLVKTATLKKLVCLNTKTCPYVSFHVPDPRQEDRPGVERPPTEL
Experimental: as §1, §2

| Compound | COX-2 enzyme inhibition ([1]; 50 μg/ml) | inhibition of lipid peroxidation [2] | COX-2 enzyme inhibition ([1]; 100 μg/ml) | also measured |
| --- | --- | --- | --- | --- |
| CC1=C(CO[C@@H]2O[C@H](CO)[C@@H](O)[C@H](O)[C@H]2O)C(=O)OC([C@@H](C)[C@H]2CC[C@H]3[C@@H]4C[C@H]5O[C@]56[C@@H](O)[C@@H](O)CC(=O)[C@]6(C)[C@H]4CC[C@]23C)C1 (stereo partly drawn) [Compound 3, 27-O-β-D-glucopyranosyl viscosalactone B] | 7% |  |  |  |
| CC1=C(CO[C@@H]2O[C@H](CO)[C@@H](O)[C@H](O)[C@H]2O)C(=O)O[C@@H]([C@@H](C)[C@H]2CC[C@H]3[C@@H]4C[C@H]5O[C@]56[C@@H](O)C=CC(=O)[C@]6(C)[C@H]4CC[C@]23C)C1 [Compound 10, sitoindoside IX] |  | 44% |  | inhibition at 100 µg/mL ([1]; read-out: COX-2 enzyme inhibition): 13% |
| CC1=C(CO)C(=O)O[C@@H]([C@@H](C)[C@H]2CC[C@H]3[C@@H]4C[C@H]5O[C@]56[C@@H](O)[C@@H](O)CC(=O)[C@]6(C)[C@H]4CC[C@]23C)C1 [Compound 8, viscosalactone B] |  | did not show activity | 35% |  |
| physagulin D (1→6)-β-D-glucopyranosyl-(1→4)-β-D-glucopyranoside [Compound 1] | 15% |  |  |  |
| CC1=C(CO)C(=O)O[C@@H]([C@@H](C)[C@H]2CC[C@H]3[C@@H]4CC=C5C[C@@H](O[C@@H]6O[C@H](CO)[C@@H](O)[C@H](O)[C@H]6O)C[C@H](O)[C@]5(C)[C@H]4CC[C@]23C)C1 [Compound 11, physagulin D] |  | 55% | 14% |  |
| COc1ccc2cc([C@H](C)C(=O)O)ccc2c1 [naproxen, reference compound] |  |  |  | inhibition at 2.5 µg/mL ([1]; read-out: COX-2 inhibition): 95%; inhibition at 2.5 µg/mL ([3]; read-out: COX-1 inhibition): 79% |
| 4-(1-hydroxy-2,2-dimethylcyclo-propanone)-2,3-dihydrowithaferin A [Compound 5] | 15% | did not show activity |  |  |
| 4,16-dihydroxy-5β,6β-epoxyphysagulin D [Compound 4] | 5% | 40% |  |  |
| CC1=C(CO)C(=O)O[C@@H]([C@@H](C)[C@H]2CC[C@H]3[C@@H]4CC=C5C[C@@H](O[C@@H]6O[C@H](CO[C@@H]7O[C@H](CO)[C@@H](O)[C@H](O)[C@H]7O)[C@@H](O)[C@H](O)[C@H]6O)C[C@H](O)[C@]5(C)[C@H]4CC[C@]23C)C1 [Compound 12, withanolide IV] |  | did not show activity | 23% |  |
| CC(=O)Oc1ccccc1C(=O)O [Aspirin, reference compound] |  |  |  | inhibition at 180 µg/mL ([1]; read-out: COX-2 inhibition): 7%; COX-1 inhibition ([3]; tested at 180 μg/ml): 61% |
| 23,24-dihydrowithaferin A [Compound 9] |  | did not show activity | neither COX-1 nor COX-2 activities | COX-1 activity ([3]; 100 μg/ml): neither COX-1 nor COX-2 activities |
| 27-O-β-D-glucopyranosyl physagulin D [Compound 2] | 9% |  |  |  |
| CC1=C(CO)C(=O)OC(C(C)C2CCC3C4CC5OC56C(O)CCC(=O)C6(C)C4CCC23C)C1 (centres unmarked) [Compound 7, 2,3-dihydrowithaferin A] |  | 5% | 27% |  |
| CC1=C(CO)C(=O)O[C@@H]([C@@H](C)[C@H]2CC[C@H]3[C@@H]4C[C@H]5O[C@]56[C@@H](O)C=CC(=O)[C@]6(C)[C@H]4CC[C@]23C)C1 [Compound 6, withaferin A] |  | did not show activity | 39% |  |
